{"source": "patent US4745124A", "about": "“Orally effective anti-hypertensive agents” (priority 1983, dated 1988)", "test_system": "pressor effects of angiotensin I", "test": "intravenous effectiveness: blood pressure response to angiotensin I in anesthetized rats", "type": "in vivo, rat", "settings": "i.v. 1 μmole/Kg, Ex. 247", "description": "(§1) Anesthetized rats were prepared as described in Example 228. After the responsiveness of a given rat to angiotensin I was established, the named compound at 2 μmol/kg, in a volume of 15 μl of 0.01N sodium bicarbonate, was injected via a femoral vein. At timed intervals, the effects of angiotensin I, 400 ng/kg, on mean arterial blood pressure were tested. Results are shown below:\nas §1, with “231.” for “228.”, “compound,” for “compound”\nAnesthetized rats were prepared as described in Example 239. The animals were administered the named compound via a femoral vein in 15 μl of 0.01N sodium bicarbonate, after the control response to 400 ng/kg of angiotensin I was measured. […] The time required for recovery of one half of the lost responsiveness to angiotensin I, following injection of the named compound, was designated t1/2. […] Results are shown for two dose levels:\nAnesthetized rats were prepared as described in Example 242. The named compound was administered intravenously via a femoral vein, at the stated dose, in 15 μl of 0.01N sodium bicarbonate. The response to intravenous administration was a rapid decrease in responsiveness to Angtiotensin I, 400 ng/kg, followed by a gradual recovery to the pretreatment level of responsiveness. The time required for recovery of one half the lost responsiveness to angiotensin I, following injection of the named compound, is designated t1/2. […] Results are shown for the three dose levels:\nThe intravenous effectiveness of the named compound was examined by following the procedure described in Example 244 except that 1 μmole/kg of the drug was given intravenously. The results are shown below:\nThe intravenous effectiveness of the named compound was examined by following the procedure described in Example 246 except that 1 μmole/Kg of the drug was given intravenously.", "note": "Structures can show the parent of a compound that is named as a salt."}
{"compound": "C[C@H](CSC(=O)C(Cc1ccccc1)NC(=O)c1ccccc1)C(=O)N1CCC[C@H]1C(=O)O", "note": "(stereo partly drawn) [potassium salt of N-alpha[3-(N-alpha-benzoyl-D,L-phenylalanylthio)-2-D-methylpropanoyl]-L-proline]", "values": [{"measurement": "Blood Pressure Response to 400 ng/kg of Angiotensin I", "setting": "5 min", "value": "46 % of Control"}, {"measurement": "Blood Pressure Response to 400 ng/kg of Angiotensin I", "setting": "10 min", "value": "37 % of Control"}, {"measurement": "Blood Pressure Response to 400 ng/kg of Angiotensin I", "setting": "15 min", "value": "41 % of Control"}, {"measurement": "Blood Pressure Response to 400 ng/kg of Angiotensin I", "setting": "20 min", "value": "37 % of Control"}, {"measurement": "Blood Pressure Response to 400 ng/kg of Angiotensin I", "setting": "30 min", "value": "44 % of Control"}, {"measurement": "Blood Pressure Response to 400 ng/kg of Angiotensin I", "setting": "40 min", "value": "50 % of Control"}, {"measurement": "Blood Pressure Response to 400 ng/kg of Angiotensin I", "setting": "50 min", "value": "39 % of Control"}, {"measurement": "Blood Pressure Response to 400 ng/kg of Angiotensin I", "setting": "60 min", "value": "46 % of Control"}, {"measurement": "Blood Pressure Response to 400 ng/kg of Angiotensin I", "setting": "90 min", "value": "52 % of Control"}, {"measurement": "Blood Pressure Response to 400 ng/kg of Angiotensin I", "setting": "120 min", "value": "59 % of Control"}]}
